US10682362B2, “Treatments and diagnostics for cancers” (Wayne State University, priority 2015, dated 2020)
Like-named read-outs stand apart in the source and are kept apart here. Where a SMILES comes first, the peptide text is derived from it. The star is where a group is joined. Cbz = O=C(OCc1ccccc1)*

Key:
AR-V7 protein [1] = settings: 22Rv1 cells, 20 μM Gal; 40 μM calpeptin or PD 66 h; 50 μM ALLM or pan-caspase inhibitor up to 72 h
Excerpt: Western blotting with anti-N20/AR antibody to examine levels of AR and AR-V7 proteins in various prostate cancer cell lines. […] This was followed by Western blotting with specific AR-V7 antibody, with Actin as a loading control.
Western blotting. (a, b) AR-V7 and AR protein levels determined by AR-V7 specific antibody and N20 antibody, respectively. (c) PARP/p89 is a caspase-3 cleavage fragment while PARP/p65 is a calpain cleavage product. (d) Caspase-3 cleavage fragment of Spectrin α2/p120, and a 150 fragment by either caspase-3 or calpain cleavage. (e) Autolysis of calpain small subunit (Cal Sm) to p28 fragment. (f) Calpain cleavage fragment of Calpastatin/p70. […] Caspase-3 activity assay.
In C, (a) Cell lysates were derivatized with 2,4-dinitrophenylhydrazine (DNPH), followed by Western blotting to determine the levels of oxidized proteins (Oxi-P). Actin was used a load control (b). AR-V7 levels were determined by AR-V7 specific antibody (c). PARP/p89 is caspase-3 cleavage fragment while PARP/p65 is calpain cleavage product (d). (e) Autolysis of calpain small subunit (Cal Sm) to p28 fragment. (f) Actin, loading control.

proteasome [2] = biological target: T1, proteasome (Homo sapiens, UniProt P28072+P28074+Q99436); assay: cellular proteasomal CT-like, PGPH-like and T-like activities in 22Rv1 cells; format: cell-based; design: endogenous in cells; host or cells: 22Rv1; settings: for inhibition at 20 µM: 22Rv1, 22Rv1 cells, 20 μM Gal
T1 sequence (P28074 60-263): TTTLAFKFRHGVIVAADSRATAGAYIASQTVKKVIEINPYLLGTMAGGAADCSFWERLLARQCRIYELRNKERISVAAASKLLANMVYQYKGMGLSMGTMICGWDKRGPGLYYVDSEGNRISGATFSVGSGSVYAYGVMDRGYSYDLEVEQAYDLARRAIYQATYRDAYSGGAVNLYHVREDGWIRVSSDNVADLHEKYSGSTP
T1 sequence (P28072 1-239): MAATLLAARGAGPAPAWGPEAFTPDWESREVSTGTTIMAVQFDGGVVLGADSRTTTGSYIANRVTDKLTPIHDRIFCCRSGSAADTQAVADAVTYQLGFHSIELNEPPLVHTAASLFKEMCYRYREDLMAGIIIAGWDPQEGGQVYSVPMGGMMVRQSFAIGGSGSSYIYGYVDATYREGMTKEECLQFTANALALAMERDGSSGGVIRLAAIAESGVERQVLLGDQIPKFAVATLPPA
T1 sequence (Q99436 44-277): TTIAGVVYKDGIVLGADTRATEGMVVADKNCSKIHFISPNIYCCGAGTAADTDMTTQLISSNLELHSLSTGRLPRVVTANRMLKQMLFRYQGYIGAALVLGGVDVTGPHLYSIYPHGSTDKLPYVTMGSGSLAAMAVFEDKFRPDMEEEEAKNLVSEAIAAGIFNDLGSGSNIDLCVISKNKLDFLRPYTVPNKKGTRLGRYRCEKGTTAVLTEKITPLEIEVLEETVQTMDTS
Excerpt: (§1) FIGS. 11A-11D. […] Actin was used a load control (b). […] (f) Actin, loading control.

22Rv1 cells [3] = assay: morphological changes and crystal violet staining of 22Rv1 cells; format: cell-based; settings: bortezomib 2.5 or 5 nM, Gal 20 μM, 24 h and 48 h
Excerpt: In 12C, cells were fixed with formalin, and then stained with violet overnight.

metastatic CRPC [4] = settings: cited from earlier work
proteasome [5] = biological target: T1, proteasome; assay: cellular proteasomal activities in VCaP cells; format: cell-based; design: endogenous in cells; settings: 5-20 μM Gal, 72 h
Excerpt: Therefore, Gal-induced proteasome inhibition occurs prior to activation of calpain/caspases and loss of AR-V7 protein (FIGS. 4 vs. 2).

caspase-3 = assay: Caspase-3 activity assay in 22Rv1 cells; format: cell-based; settings: 20 μM Gal
22Rv1 cells [6] = assay: cell proliferation by MTT in 22Rv1 cells; format: cell-based; settings: Gal alone, 24 h
[7] = tested on: full length AR (AR-FL) protein; assay: Western blotting of full length AR (anti-AR N20) in 22Rv1 cells; format: cell-based
[8] = tested on: oxidized proteins (Oxi-P); assay: oxidized proteins (DNPH derivatization, Western blotting) in 22Rv1 cells; format: cell-based; settings: 20 μM Gal
Protocol: as §1
(§2) Sustained DUBs inhibition was detected for up to 48 h (FIG. 11A). […] AR-V7 protein level remained subtle changes up to 56 h and decreased after 64-68 h, and completely depleted after 72 h (FIG. 11C, c). […] Consistently, caspase-3-specific cleavage fragments, 89 kD fragment of PARP (PARP/p89) were also detected between 48 and 72 h (FIG. 11C, d). Calpain activation is associated with self-autolysis of its small subunit. […] This finding has important clinical significance.

purified 26S proteasome = purified 26S proteasome (Homo sapiens, UniProt P28072+P28074+Q99436); assay: proteasome activities of purified 26S proteasome; format: biochemical; settings: 15 min
Protocol: (§3) FIGS. 10A-10E. […] Purified 20S proteasome was used a control; BG, background (10D).
(§4) Then deubiquitinase (DUBs) activity associated with the 19S proteasome was determined by using the purified 26S proteasome.

DUBs = assay: DUB activity in 22Rv1 cells; format: cell-based; settings: 20 μM Gal
Protocol: as §1, §2

purified 20S proteasome = purified 20S proteasome (Homo sapiens, UniProt P28072+P28074+Q99436); assay: proteasome activities of purified 20S proteasome; format: biochemical; settings: 15 min
Protocol: as §3, §4

[9] = tested on: CRPC with C-terminal AR loss; settings: Phase 2 ARMOR2; cited from earlier work
[10] = tested on: 19S proteasome-associated DUB; assay: DUBs activity of purified 26S proteasome (Ub-AMC substrate); format: biochemical
Protocol: as §3, §4

calpain [11] = assay: calpain activation by cleavage fragments (Western blotting) in 22Rv1 cells; format: cell-based; settings: 20 μM Gal, same time points as p28 (48 to 72 h)
[12] = tested on: BTZ-resistant MM 8826 cells; assay: cell proliferation by MTS in BTZ-resistant MM cells; format: cell-based; settings: Gal alone at 10 or 20 μM, 24 h
Protocol: FIGS. 13A-C. […] Cell proliferation was determined by MTS. […] Cell death was determined by detection of PARP cleavage. […] Actin was used as loading control.
8826-7BR is a multiple myeloma cell line developed resistance to bortezomib. […] This finding has high translational potential to clinics.

proteasome [13] = assay: proteasome CT-like activity in protein extract of 22Rv1 cells; format: biochemical; settings: high concentrations (50 or 100 μM)
AR-V7 = settings: 5 μM of MG132; cited from earlier work
calpain [14] = settings: cited from earlier work
proteasome [15] = settings: cited from earlier work
metastatic CRPC [16] = settings: phase III clinical trials; versus 10.9 months placebo; cited from earlier work
AR-V7 protein [17] = assay: Western blotting of AR-V7 in nuclear and cytosolic fractions of 22Rv1 cells; format: cell-based; settings: for rescue of Gal-induced nuclear AR-V7 loss: androgen-starved 22Rv1 cells, 20 μM Gal plus 40 μM calpeptin or 20 μM Z-VAD
Excerpt: Nuclear fractions were isolated and separated by Western blotting to determine AR-V7 levels. Actin was used as a loading control.

With `CSCC[C@@H](C=O)NC(=O)[C@H](CC(C)C)NC(=O)[C@H](CC(C)C)NC(C)=O` [ALLM, N-acetyl-L-leucyl-L-leucyl-L-methioninal] (Ac-Leu-Leu-Met-aldehyde) the “rescue of Gal-induced AR-V7 loss by inhibitor” value (AR-V7 protein [1]) was “rescue AR-V7 loss partially”.
With `CC(C)C[C@H](NC(=O)[C@H](Cc1ccccc1)NC(=O)c1cnccn1)B(O)O` [BTZ] the “proteasomal CT-like activity” value (proteasome [2]; 22Rv1 cells, BTZ alone, 48 h) was “caused proteasomal CT-like inhibition”, the “proteasomal chymotrypsin (CT)-like activity” value (proteasome [2]; 22Rv1 cells, BTZ alone, 72 h) was “dose-dependent inhibition” and the “morphological changes / cell death” value (22Rv1 cells [3]) was “did not cause apparent morphological changes”.
For `CNC(=O)c1ccc(N2C(=S)N(c3ccc(C#N)c(C(F)(F)F)c3)C(=O)C2(C)C)cc1F` [Enzalutamide], the “patients with PSA level decreased more than 50%” value (metastatic CRPC [4]; chemo-naive patients) is listed as 40/65, the “patients with PSA level decreased more than 50%” value (metastatic CRPC [4]; chemotherapy-treated patients) is listed as 38/75 and the “lived longer than those taking placebo” value (metastatic CRPC [4]; interim analysis) is listed as “approximately 5 months”.
With `C[C@]12CC[C@H](O)CC1=CC[C@@H]1[C@@H]2CC[C@]2(C)C(n3cnc4ccccc43)=CC[C@@H]12` [Gal, (3S,8R,9S,10R,13S,14S)-17-(benzimidazol-1-yl)-10,13-dimethyl-2,3,4,7,8,9,11,12,14,15-decahydro-1H-cyclopenta[a]phenanthren-3-ol] the three proteasomal activities (proteasome [5]) was “dose-dependent inhibition”, the “time after which caspase-3 activity increased” value (caspase-3) was no less than 24 h and the “time at which caspase-3 activity reached the highest” value (caspase-3) was 48 h. The caspase-3 activation (caspase-3; after 48 h) was 5 fold, the “cell proliferation (MTT)” value (22Rv1 cells [6]) was “did not inhibit cell proliferation” and the “time after which full length AR (AR-FL) protein decreased” value ([7]; 20 μM Gal for up to 72 h) was no less than 48 h. For the same molecule, the “AR-FL protein expression in cytosolic and nuclear fractions” value ([7]; 20 μM Gal, anti-AR N20 antibody) was “a decrease in both cytosolic and nuclear AR-FL protein expression”, the “sustained accumulation of oxidized proteins detected up to” value [8] was “up to 72 h” and the “time before which oxidized proteins accumulated” value [8] was less than 2 h. The “three proteasomal activities (CT, PGPH and T-like)” value (purified 26S proteasome) was “unable to block all the three proteasomal activities”, the “earliest time of DUBs inhibition” value (DUBs) was no more than 2 h and the “sustained DUBs inhibition detected up to” value (DUBs) was “up to 48 h”. For the same molecule, the inhibition at 20 µM (proteasome [2]; after 64 h) was greater than 50%, the inhibition at 20 µM (proteasome [2]; at 48 h) was 30% and the inhibition at 20 µM (proteasome [2]; between 2-24 h) was 10%. For the same molecule, the “proteasomal CT-like activities, time course” value (proteasome [2]; 22Rv1 cells, 20 μM Gal up to 72 h) was “inhibited in a time-dependent fashion, but later than DUBs inhibition”, the “proteasomal CT-like activity” value (proteasome [2]; 22Rv1 cells, 5-20 μM Gal, 24 h) was “dose-dependent decrease” and the “proteasomal PGPH-like activity” value (proteasome [2]; 22Rv1 cells, 5-20 μM Gal, 24 h) was “dose-dependent decrease”. The “proteasomal trypsin (T)-like activity” value (proteasome [2]; 22Rv1 cells, 5-20 μM Gal, 24 h) was “but not trypsin (T)-like activities”, the “all three proteasomal activities” value (proteasome [2]; 22Rv1 cells, 5-20 μM Gal, 48 h) was “decreased in a Gal dose-dependent fashion” and the “three proteasomal activities (CT, PGPH and T-like)” value (purified 20S proteasome) was “unable to block all the three proteasomal activities”. The “response of Abi- and Enz refractory CRPC patients with C-terminal AR loss” value [9] was “remain responsive”, the “DUBs activity of purified 26S proteasome” value ([10]; Gal 20 μM, 15 min) was “suppressed” and the “DUBs activity of purified 26S proteasome” value ([10]; Gal at a low dose (10 μM)) was “could efficiently inhibit DUBs activity”. For the same molecule, the “calpain cleavage product Calpastatin/p70” value (calpain [11]) was “detected at the same time points”, the “morphological changes / cell death” value (22Rv1 cells [3]) was “did not cause apparent morphological changes” and the “sensitivity of BTZ-resistant MM cells (MTS)” value [12] was “sensitive to Gal treatment alone”. For the same molecule, the “CT-like activity of the proteasome” value (proteasome [13]) was “could inhibit the CT-like activity”.
In the case of `CC(C)C[C@@H](C=O)NC(=O)[C@H](CC(C)C)NC(=O)[C@H](CC(C)C)NC(=O)OCc1ccccc1` [MG132] (Cbz-Leu-Leu-Leu-aldehyde), the “inhibition of Gal-induced AR-V7 degradation” value (AR-V7) is listed as “could be inhibited”, the IC50 (calpain [14]) is listed as 1.2 µM and the IC50 (proteasome [15]) is listed as 0.1 µM.
For `O=C(O)/C(S)=C/c1ccc(I)cc1` [PD150606], the “rescue of Gal-induced AR-V7 loss by inhibitor” value (AR-V7 protein [1]) was “rescue AR-V7 loss partially”.
In the case of `CC(=O)O[C@H]1CC[C@@]2(C)C(=CC[C@@H]3[C@@H]2CC[C@]2(C)C(c4cccnc4)=CC[C@@H]32)C1` [abiraterone acetate], the median survival (metastatic CRPC [16]) is listed as 14.8 months.
With `CCCC[C@@H](C=O)NC(=O)[C@H](CC(C)C)NC(=O)OCc1ccccc1` [calpeptin, Z-Leu-Nle-CHO] the “block of Gal-induced nuclear AR-V7 depletion” value (AR-V7 protein [17]; 22Rv1 cells, 20 μM Gal plus 40 μM calpeptin, 56 h and 72 h) was “could be blocked”, the “rescue of Gal-induced nuclear AR-V7 loss” value (AR-V7 protein [17]) was “partially rescued AR-V7 loss by Gal” and the “rescue of Gal-induced AR-V7 loss by inhibitor” value (AR-V7 protein [1]) was “rescue AR-V7 loss partially”.
For Z-VAD, the “rescue of Gal-induced nuclear AR-V7 loss” value (AR-V7 protein [17]) was “able to block the Gal-induced AR-V7 depletion”.
